Key:
[1] = target: T1, human EGFR (wildtype), EGFR(DKIN) (Homo sapiens, UniProt P00533); assay: Binding of wildtype-EGFR (T7 phage-displayed kinase competition binding)
T1 construct: Kd for EGFR(DKIN); made in house
Text: Methods for measuring binding affinities for interactions between small molecules and kinases including FLT3, c-KIT, ABL([…]) [a.k.a. ABL([…])], VEGFR-2 (a.k.a. KDR), and EGFR are described in detail in U.S. application Ser. No. 10/873,835, which is incorporated by reference herein in its entirety. The components of the assays include human kinases expressed as fusions to T7 bacteriophage particles and immobilized ligands that bind to the ATP site of the kinases. […] If the test compound binds the kinase it competes with the immobilized ligand and prevents binding to the solid support. […] The results are read out by quantitating the amount of fusion protein bound to the solid support, which is accomplished by either traditional phage plaque assays or by quantitative PCR (qPCR) using the phage genome as a template. […] The concentration of test molecule that reduces the number of phage bound to the solid support by 50% is equal to the Kd for the interaction between the kinase and the test molecule. Typically, data are collected for twelve concentrations of test compound and, the resultant binding curve is fit to a non-cooperative binding isotherm to calculate Kd. Described in the exemplary assays below is data from binding with varying kinases. […] The term “ND” represents non-determined values. […] The Kd for the interaction between the soluble compound (competitor) molecule and EGFR is equal to the concentration of soluble competitor molecule that causes a 50% reduction in the number of phage recovered in the eluate compared to a control sample lacking soluble competitor.

[2] = target: T2, EGFR (tyrosine 1173 phosphorylation) in A431 cells (Homo sapiens, UniProt P00533); assay: EGFR Autophosphorylation Inhibition Assay in Epidermoid Carcinoma Cell Line A431; assay type: cell-based; settings: EGF-induced phosphorylation of tyrosine 1173
T2 construct: endogenous in cells; host or cells: A431
Method: (§1) Tyrosine 1173 is a major autophosphorylation site resulting from activation of EGFR by epidermal growth factor (EGF). To determine the capacity of a compound to inhibit this phosphorylation activity of EGFR upon itself, the following methodology was used: 4×10^4 A431 cells/well in a 96-well culture plate or 3.6×10^5 A549 cells/well in a 24-well culture plate were cultured overnight at 37° C. in 5% CO2 in low serum culture medium (DMEM supplemented with 0.5% fetal calf serum, 4.500 mg/L glucose and 100 units/ml penicillin-streptomycin). After 16 hours, the cells were pre-incubated in eight serial 3-fold dilutions of test compound (3.3 μM-0.0017 μM) in addition to vehicle control (final concentration on DMSO vehicle was 1%) for two hours. Cells were stimulated by the addition of 5 ng/ml of EGF for five minutes. Cells were then washed with cold phosphate buffered saline (PBS), and incubated for 30 minutes at 4° C. in lysis buffer. Subsequently, the samples were centrifuged at 6000× RCF for 15 minutes, and the level of phosphorylation of EGFR tyrosine 1173 was measured using a sandwich enzyme-linked immunosorbent assay following the manufacturer's recommended protocols (Biosource, Camarillo, Calif.). Total EGFR levels were also measured in the same manner to control for protein level differences. The reported values are those concentrations of compound required to inhibit EGF-induced phosphorylation of tyrosine 1173 by 50%.

[3] = target: T3, EGFR (tyrosine 1173 phosphorylation) in Lung Cancer Cell Line A459 (Homo sapiens, UniProt P00533); assay: EGFR Autophosphorylation Inhibition Assay in Lung Cancer Cell Line A459; assay type: cell-based; settings: EGF-induced phosphorylation of tyrosine 1173
T3 construct: endogenous in cells
Method: as §1

T2 sequence (P00533 25-1210): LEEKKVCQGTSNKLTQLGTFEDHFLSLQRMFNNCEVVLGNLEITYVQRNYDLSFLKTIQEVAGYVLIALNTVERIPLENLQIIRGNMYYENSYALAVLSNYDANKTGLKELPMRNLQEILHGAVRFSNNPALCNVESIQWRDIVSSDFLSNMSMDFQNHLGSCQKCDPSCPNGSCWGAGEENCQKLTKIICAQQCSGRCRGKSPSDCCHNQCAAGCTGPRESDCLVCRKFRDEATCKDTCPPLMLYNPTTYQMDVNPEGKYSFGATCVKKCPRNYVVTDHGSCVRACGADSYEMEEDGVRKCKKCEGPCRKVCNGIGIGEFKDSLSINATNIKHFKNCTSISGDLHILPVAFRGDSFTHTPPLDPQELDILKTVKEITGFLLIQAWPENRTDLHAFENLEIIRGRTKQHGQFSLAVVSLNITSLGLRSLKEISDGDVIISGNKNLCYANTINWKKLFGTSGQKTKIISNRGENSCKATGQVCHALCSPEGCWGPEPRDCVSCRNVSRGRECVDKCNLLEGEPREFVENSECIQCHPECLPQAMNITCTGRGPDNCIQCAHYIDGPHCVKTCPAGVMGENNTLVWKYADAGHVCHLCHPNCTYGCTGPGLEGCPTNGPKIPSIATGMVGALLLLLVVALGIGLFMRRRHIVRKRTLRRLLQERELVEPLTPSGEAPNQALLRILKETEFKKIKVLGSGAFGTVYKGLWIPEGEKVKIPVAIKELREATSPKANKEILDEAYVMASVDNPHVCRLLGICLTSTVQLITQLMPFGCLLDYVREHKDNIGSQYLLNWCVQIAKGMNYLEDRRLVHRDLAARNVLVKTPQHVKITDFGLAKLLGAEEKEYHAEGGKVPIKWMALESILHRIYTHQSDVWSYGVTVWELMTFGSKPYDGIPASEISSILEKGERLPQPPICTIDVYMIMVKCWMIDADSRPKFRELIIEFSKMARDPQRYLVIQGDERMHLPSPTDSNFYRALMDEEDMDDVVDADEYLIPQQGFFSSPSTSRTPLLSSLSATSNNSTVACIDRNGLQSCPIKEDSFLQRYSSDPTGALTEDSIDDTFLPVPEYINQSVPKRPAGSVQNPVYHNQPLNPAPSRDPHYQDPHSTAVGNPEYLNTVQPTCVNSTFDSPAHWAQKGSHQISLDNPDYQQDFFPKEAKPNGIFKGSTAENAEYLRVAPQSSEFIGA
T3 sequence (P00533 25-1210): as above
T1 sequence (P00533 712-979 limits assumed): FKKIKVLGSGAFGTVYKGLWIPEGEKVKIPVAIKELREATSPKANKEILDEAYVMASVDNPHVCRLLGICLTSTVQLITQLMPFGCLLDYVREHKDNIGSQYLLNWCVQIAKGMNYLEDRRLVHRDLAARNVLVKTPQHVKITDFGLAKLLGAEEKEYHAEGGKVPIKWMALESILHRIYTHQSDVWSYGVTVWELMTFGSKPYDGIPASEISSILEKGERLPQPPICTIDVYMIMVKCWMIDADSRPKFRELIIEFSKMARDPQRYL

| Kd [1] | IC50 [2] | IC50 [3] | Structure (SMILES) |
| --- | --- | --- | --- |
| 0.1 to 1 µM | – | – | COc1cccc(Sc2ncnc3[nH]c(-c4ccc(O)cc4)cc23)c1 [Compound L4] |
| < 0.1 µM | 0.1 to 1 µM | – | Cc1ccc(Sc2ncnc3c2[nH]c2ccccc23)cc1 [Compound K15] |
| < 0.1 µM | 0.1 to 1 µM | – | Brc1cccc(Sc2ncnc3c2[nH]c2ccccc23)c1 [Compound K8] |
| < 0.1 µM | < 0.1 µM | 1 to 10 µM | Oc1ccc(-c2cc3c(Sc4cccc(F)c4)ncnc3[nH]2)cc1 [Compound L3] |
| < 0.1 µM | 0.1 to 1 µM | – | Clc1ccc(Sc2ncnc3c2[nH]c2ccccc23)cc1 [Compound K13] |
| 0.1 to 1 µM | – | – | Cc1cccc(Sc2ncnc3c2[nH]c2ccccc23)c1 [Compound K12] |
| 0.1 to 1 µM | – | – | COc1cccc(Sc2ncnc3oc(-c4ccccc4)c(-c4ccccc4)c23)c1 [Compound N12] |
| 1 to 10 µM | – | – | Oc1ccc(-c2cc3c(SCCc4ccccc4)ncnc3[nH]2)cc1 [Compound L1, 4-(4-Phenethylsulfanyl-7H-pyrrolo[2,3-d]pyrimidin-6-yl)-phenol] |
| < 0.1 µM | 0.1 to 1 µM | 0.1 to 1 µM | Fc1ccc(Sc2ncnc3c2[nH]c2ccccc23)cc1 [Compound K14] |
| < 0.1 µM | < 0.1 µM | 1 to 10 µM | Cc1cccc(Sc2ncnc3[nH]c(-c4ccc(O)cc4)cc23)c1 [Compound L5] |
| 0.1 to 1 µM | – | – | COc1ccc(Sc2ncnc3[nH]c(-c4ccc(O)cc4)cc23)cc1 [Compound L11] |
| < 0.1 µM | – | – | c1ccc(Sc2ncnc3c2[nH]c2ccccc23)cc1 [Compound K17] |
| < 0.1 µM | < 0.1 µM | 1 to 10 µM | Oc1ccc(-c2cc3c(Sc4ccc(F)cc4)ncnc3[nH]2)cc1 [Compound L8] |
| < 0.1 µM | 0.1 to 1 µM | 1 to 10 µM | Cc1ccc(Sc2ncnc3[nH]c(-c4ccc(O)cc4)cc23)cc1 [Compound L9] |
| < 0.1 µM | 0.1 to 1 µM | 0.1 to 1 µM | Clc1cccc(Sc2ncnc3c2[nH]c2ccccc23)c1 [Compound K10] |
| < 0.1 µM | 0.1 to 1 µM | 1 to 10 µM | Oc1ccc(-c2cc3c(Sc4ccc(Cl)cc4)ncnc3[nH]2)cc1 [Compound L7] |
| 0.1 to 1 µM | – | – | Oc1cccc(Sc2ncnc3oc(-c4ccccc4)c(-c4ccccc4)c23)c1 [Compound N4] |

Continued, compound first:

| Structure (SMILES) | Kd [1] | IC50 [2] | IC50 [3] |
| --- | --- | --- | --- |
| COc1ccc(-c2cc3c(Sc4cccc(OC)c4)ncnc3[nH]2)cc1 [Compound J9] | 0.1 to 1 µM | – | – |
| COc1cccc(-c2cc3c(Sc4ccc(C)cc4)ncnc3[nH]2)c1 [Compound J31] | < 0.1 µM | 1 to 10 µM | > 10 µM |
| COc1ccc(-c2cc3c(OCc4ccccc4)ncnc3[nH]2)cc1 [Compound C4] | 0.1 to 1 µM | – | – |
| COc1cccc(-c2cc3c(Sc4cc(C)cc(C)c4)ncnc3[nH]2)c1 [Compound J22] | 0.1 to 1 µM | – | – |
| COc1cccc(-c2cc3c(Oc4cc(C)cc(C)c4)ncnc3[nH]2)c1 [Compound D18] | 0.1 to 1 µM | – | – |
| COc1ccc(-c2cc3c(Sc4ccc(Cl)c(Cl)c4)ncnc3[nH]2)cc1 [Compound J3] | 0.1 to 1 µM | – | – |
| COc1cccc(-c2cc3c(Sc4ccc(C(C)(C)C)cc4)ncnc3[nH]2)c1 [Compound J32] | 1 to 10 µM | – | – |
| COc1cccc(-c2cc3c(Sc4cc(Cl)cc(Cl)c4)ncnc3[nH]2)c1 [Compound J21] | > 10 µM | – | – |
| COc1ccc(-c2cc3c(Sc4ccc(F)c(Cl)c4)ncnc3[nH]2)cc1 [Compound J37] | < 0.1 µM | 0.1 to 1 µM | – |
| CCc1ccccc1Sc1ncnc2[nH]c(-c3cccc(OC)c3)cc12 [Compound J20] | < 0.1 µM | 1 to 10 µM | – |
| COc1cccc(-c2cc3c(Sc4cccc(F)c4)ncnc3[nH]2)c1 [Compound J25] | < 0.1 µM | 0.1 to 1 µM | 1 to 10 µM |
| Cc1cc(C)cc(Oc2ncnc3[nH]c(-c4ccc(O)cc4)cc23)c1 [Compound E2] | < 0.1 µM | – | – |
| COc1ccc(-c2cc3c(Sc4cccc(F)c4)ncnc3[nH]2)cc1 [Compound J8] | < 0.1 µM | 1 to 10 µM | 1 to 10 µM |
| COc1ccc(-c2cc3c(OCc4cccc(C)c4)ncnc3[nH]2)cc1 [Compound C3] | > 10 µM | – | – |
| COc1cccc(-c2cc3c(Sc4cccc(C)c4)ncnc3[nH]2)c1 [Compound J27] | 0.1 to 1 µM | 0.1 to 1 µM | 1 to 10 µM |
| COc1cccc(-c2cc3c(Oc4cccc(C(F)(F)F)c4)ncnc3[nH]2)c1 [Compound D21] | 0.1 to 1 µM | – | – |
| COc1cccc(-c2cc3c(Sc4ccccc4)ncnc3[nH]2)c1 [Compound J33] | < 0.1 µM | 0.1 to 1 µM | 1 to 10 µM |
| COc1ccc(-c2cc3c(Oc4cccc(Cl)c4)ncnc3[nH]2)cc1 [Compound D5] | < 0.1 µM | 0.1 to 1 µM | – |
| COc1cccc(-c2cc3c(Sc4cccc(Br)c4)ncnc3[nH]2)c1 [Compound J23] | < 0.1 µM | 0.1 to 1 µM | 0.1 to 1 µM |

| Structure (SMILES) | Kd [1] | IC50 [2] | IC50 [3] |
| --- | --- | --- | --- |
| COc1ccc(-c2cc3c(Oc4cccc(C)c4)ncnc3[nH]2)cc1 [Compound D8] | < 0.1 µM | – | – |
| COc1ccc(-c2cc3c(Sc4cccc(Cl)c4)ncnc3[nH]2)cc1 [Compound J7] | < 0.1 µM | 1 to 10 µM | 1 to 10 µM |
| COc1ccc(-c2cc3c(Sc4ccc(C)cc4)ncnc3[nH]2)cc1 [Compound J14] | < 0.1 µM | 1 to 10 µM | 1 to 10 µM |
| COc1ccc(-c2cc3c(Sc4ccc(F)cc4)ncnc3[nH]2)cc1 [Compound J13] | < 0.1 µM | 1 to 10 µM | – |
| COc1cccc(-c2cc3c(Oc4cccc(Br)c4)ncnc3[nH]2)c1 [Compound D19] | < 0.1 µM | 0.1 to 1 µM | 1 to 10 µM |
| COc1cccc(-c2cc3c(Sc4cccc(Cl)c4)ncnc3[nH]2)c1 [Compound J24] | < 0.1 µM | 0.1 to 1 µM | 0.1 to 1 µM |
| COc1ccc(-c2cc3c(Sc4cccc(C)c4)ncnc3[nH]2)cc1 [Compound J10] | 0.1 to 1 µM | – | – |
| Oc1ccc(-c2cc3c(Oc4cc(Cl)cc(Cl)c4)ncnc3[nH]2)cc1 [Compound E1, 4-[4-(3,5-Dichloro-phenoxy)-7H-pyrrolo[2,3-d]pyrimidin-6-yl]-phenol] | 0.1 to 1 µM | 0.1 to 1 µM | – |
| COc1ccc(-c2cc3c(Sc4ccccc4)ncnc3[nH]2)cc1 [Compound J16] | 0.1 to 1 µM | – | – |
| COc1cccc(Oc2ncnc3[nH]c(-c4ccc(O)cc4)cc23)c1 [Compound E4] | 0.1 to 1 µM | – | – |
| COc1cccc(Sc2ncnc3[nH]c(-c4cccc(OC)c4)cc23)c1 [Compound J26] | 0.1 to 1 µM | – | – |
| COc1ccc(-c2cc3c(Sc4cccc(C(F)(F)F)c4)ncnc3[nH]2)cc1 [Compound J11] | 0.1 to 1 µM | – | – |
| Cc1cc(C)cc(Sc2ncnc3[nH]c(-c4ccc(O)cc4)cc23)c1 [Compound J18] | 0.1 to 1 µM | – | – |
| Clc1ccc(Sc2ncnc3[nH]ccc23)cc1Cl [Compound F3] | 0.1 to 1 µM | – | – |
| Cc1ccc(-c2cc3c(Sc4cccc(F)c4)ncnc3[nH]2)cc1 [Compound J17] | 0.1 to 1 µM | – | – |
| COc1cccc(-c2cc3c(Sc4ccccc4Cl)ncnc3[nH]2)c1 [Compound J19] | < 0.1 µM | 1 to 10 µM | 1 to 10 µM |
| COc1cccc(-c2cc3c(Oc4cccc(F)c4)ncnc3[nH]2)c1 [Compound D20] | 0.1 to 1 µM | – | – |
| COc1ccc(-c2cc3c(Oc4cccc(Br)c4)ncnc3[nH]2)cc1 [Compound D3] | 0.1 to 1 µM | – | – |
| COc1cccc(-c2cc3c(Sc4cccc(C(F)(F)F)c4)ncnc3[nH]2)c1 [Compound J28] | < 0.1 µM | 1 to 10 µM | – |

From patent US20050239806A1, “Pyrrolopyrimidine derivatives and analogs and their use in the treatment and prevention of diseases” (Ambit Biosciences Corporation, priority 2004, published 2005)
